Measured values published in patent EP4741387A1, “CRYSTAL FORM OF BIPYRIMIDINE COMPOUND, PREPARATION METHOD THEREFOR AND USE THEREOF” (Jiangsu Yahong Meditech Co., Ltd., priority 2023, dated 2025).
Converted amounts (≈) assume the structure as drawn. Marks after values point to notes of the source that are not given here.

What was measured:
[1] = Solubility study of crystal form I; format: physicochemical; conditions: for solubility: thermodynamic from solid
Description: (§1) The HPLC for solubility and stability is carried out using a Phenomenex Luna C18 (2), 3 µm, 2X50 mm chromatographic column.
50 µL or 100 µL of the solvent shown in Table 6 was gradually added to 2 mg of crystal form I, and the resulting mixture was manually shaken, vortexed, or sonicated to dissolve. Addition of solvent was stopped if the concentration was below 1 mg/mL. The solubility was calculated based on the sample amount and the total amount of solvent added.

[2] = Dynamic vapor sorption (DVS); format: physicochemical
[3] = Stability to forced degradation (oxidative and alkali); format: physicochemical; conditions: 1 mg/mL in 90% acetonitrile
Description: as §1
3 mg of crystal form I was weighed to formulate a stock solution of 1 mg/mL with 3 mL of 90% acetonitrile. Stability subjected to oxidative degradation (degraded with 3% H2O2 at 40°C for 1.5 hours) and alkali degradation (degraded with 0.1 N NaOH at 40°C for 2 hours) was studied.

[4] = Stability subjected to temperature and humidity (LC analysis); format: physicochemical; conditions: solid powder, 30 days
Description: as §1
1 to 3 mg of crystal form I solid powder was weighed, and placed at 60°C or 60°C / 75% RH for 30 days. Samples were collected for LC study and analysis.

[5] = Stability subjected to temperature and humidity (XRPD of crystal form); format: physicochemical; conditions: solid powder, 30 days
Description: The instrument is Shimadzu XRD-6000, and the samples are scanned according to the following parameters: The ray source is Cu~Kα target (1.54056 Å).
In addition, an appropriate amount of crystal form I solid powder was weighed, and placed under stability conditions (40°C / 75% RH, 60°C / 75% RH) for 30 days. Samples were collected for XRPD.

[6] = Stability subjected to light (LC analysis); format: physicochemical
Description: as §1
An appropriate amount of crystal form I solid powder was weighed, and placed in a light-stabilized chamber to irradiate under ICH light intensity conditions (at least greater than 1.2*10^6 Lux*h, illuminance of 4500±500 Lux, and intensity of 200 w*hr/m^2). Samples were collected for LC study and analysis.

[7] = Trituration study of crystal form I (XRPD); format: physicochemical; conditions: manual trituration 1 min or 3 min, without solvent, with water or ethanol
Description: Approximately 50 mg of crystal form I was manually triturated in a mortar using the condition shown in Table 5, and XRPD was carried out to investigate the crystal form of the triturated solid.

[8] = Pharmacokinetic study of intragastric administration of suspension; format: in vivo; conditions: male SD rats, result in words
Description: Crystal form I was used in pharmacokinetic studies in rats. Twelve male SD rats were weighed before administration, and housed using standard feeding methods. Animals were housed in standard cages with free access to food and water during the study. Rats were intragastrically administered the suspension of crystal form I. 40 µL of blood was collected at each sampling point, and placed in an EDTA-containing anticoagulant tube. After centrifugation, 20 µL of plasma was collected. All samples were immediately frozen in a -80°C refrigerator after collection.

[9] = Solubility study of crystal form I; format: physicochemical; conditions: pH 7.4 phosphate buffer (37°C for 24 hours)

COc1cnc(-c2c(OC)ncnc2C2CC2)nc1NCC12CCC(c3nc(C(F)(F)F)cn3C)(CC1)CC2 [crystal form I, 4'-cyclopropyl-5,6'-dimethoxy-N-((4-(1-methyl-4-(trifluoromethyl)-1H-imidazol-2-yl)bicyclo[2.2.2]octan-1-yl)methyl)-[2,5'-bipyrimidin]-4-amine] showed a solubility ([1]; acetone, organic solvent or mixture) greater than 34.4 mg/mL, a solubility ([1]; acetonitrile, organic solvent or mixture) of 14.2 to 28.4 mg/mL (≈ 26.1 to 52.2 mM) and a solubility ([1]; acetonitrile-water 9:1, organic solvent or mixture) greater than 32.4 mg/mL. It also gave a solubility ([1]; ethyl acetate, organic solvent or mixture) of 14.9 to 29.8 mg/mL (≈ 27.4 to 54.8 mM), a solubility ([1]; methanol, organic solvent or mixture) greater than 19.2 mg/mL and a solubility ([1]; methanol-water 1:1, aqueous with cosolvent or surfactant or cyclodextrin) of less than 0.895 mg/mL. For the same compound, the solubility ([1]; methanol-water 9:1, organic solvent or mixture) was greater than 33.4 mg/mL, the “solubility in organic solvent” value ([1]; organic solvent, result in words) was “good solubility” and the solubility ([1]; pH 1.2 hydrochloric acid solution, pH 1.2, simulated gastric fluid) was 8.45 to 16.9 mg/mL (≈ 15.5 to 31.1 mM). For the same compound, the hygroscopicity ([2]; DVS, result in words) was “non-hygroscopic”, the “crystal form after DVS (XRPD)” value ([2]; XRPD before and after DVS) was “did not change” and the water absorption rate ([2]; from 0% RH to 95% RH, 25°C) was 0.02%. The degradation ([3]; alkali degradation: 0.1 NaOH at 40°C for 2 hour) was “only slight degradation”, the degradation ([3]; oxidative degradation: 3% H2O2 at 40°C for 1.5 hours) was “only slight degradation” and the “change of content of the main component” value ([4]; 60°C / 75% RH) was “less than 0.2%”. For the same compound, the “change of content of the main component” value ([4]; 60°C) was “less than 0.2%”, the “crystal form change (XRPD)” value ([5]; 40°C / 75% RH) was “did not change its crystal form” and the “crystal form change (XRPD)” value ([5]; 60°C / 75% RH) was “did not change its crystal form”. For the same compound, the photostability ([6]; ICH light conditions, result in words) was “photostable”, the “change of content of the main component” value ([6]; solid powder, ICH light intensity conditions (>1.2*10^6 Lux*h, 200 w*hr/m^2)) was “less than 0.2%” and the “crystal form after trituration (XRPD)” value [7] was “all crystal form I”. The bioavailability [8] was “high”, the exposure [8] was “high” and the plasma concentration [8] was “high”. For the same compound, the solubility at 24 h ([9]; aqueous buffer, thermodynamic from solid) was 0.31 mg/mL (≈ 0.57 mM) and the solubility [9] was 0.31 * mg/mL.
